According to ChEMBL document CHEMBL1201862, “PubChem BioAssay data set” (2004):
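All cell lines were grown in 96-well plates and treated with compound for 48 hours. Abbreviation: GI50, concentration required for 50% inhibition of growth.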 Active and inactive are the calls of the source. Rule as the data show it: active = GI50 up to about 1.1 µM and inactive = higher.

Tests used:
Experiment in all cases: NCI tumour cell line growth inhibition, 48 h
786-0 = test system: 786-0
A498 = test system: A498
A549 = test system: A549
ACHN = test system: ACHN
BT-549 = test system: BT-549
CAKI-1 = test system: CAKI-1
CCRF-CEM = test system: CCRF-CEM
COLO 205 = test system: COLO 205
DU-145 = test system: DU-145
EKVX = test system: EKVX
HCT-116 = test system: HCT-116
HCT-15 = test system: HCT-15
HL-60 = test system: HL-60
HOP-62 = test system: HOP-62
HOP-92 = test system: HOP-92
HT-29 = test system: HT-29
Hs-578T = test system: Hs-578T
IGROV-1 = test system: IGROV-1
K562 = test system: K562
KM12 = test system: KM12
LOX IMVI = test system: LOX IMVI
M14 = test system: M14
MCF7 = test system: MCF7
MDA-MB-231 = test system: MDA-MB-231
MDA-MB-435 = test system: MDA-MB-435
MDA-N = test system: MDA-N
Malme-3M = test system: Malme-3M
NCI-H226 = test system: NCI-H226
NCI-H23 = test system: NCI-H23
NCI-H460 = test system: NCI-H460
NCI-H522 = test system: NCI-H522
NCI/ADR-RES = test system: NCI/ADR-RES
OVCAR-3 = test system: OVCAR-3
OVCAR-4 = test system: OVCAR-4
OVCAR-5 = test system: OVCAR-5
OVCAR-8 = test system: OVCAR-8
PC-3 = test system: PC-3
RPMI-8226 = test system: RPMI-8226
RXF 393 = test system: RXF 393
SF-268 = test system: SF-268
SF-295 = test system: SF-295
SF-539 = test system: SF-539
SK-MEL-28 = test system: SK-MEL-28
SK-MEL-2 = test system: SK-MEL-2
SK-MEL-5 = test system: SK-MEL-5
SK-OV-3 = test system: SK-OV-3
SN12C = test system: SN12C
SNB-19 = test system: SNB-19
SNB-75 = test system: SNB-75
SR = test system: SR
SW-620 = test system: SW-620
T47D = test system: T47D
TK-10 = test system: TK-10
U-251 = test system: U-251
UACC-257 = test system: UACC-257
UACC-62 = test system: UACC-62
UO-31 = test system: UO-31
MOLT-4 = test system: MOLT-4

SMILES: Nc1c(S(=O)(=O)O)cc(S(=O)(=O)O)c2ccc(/N=N/c3ccccc3)c(O)c12
- GI50 (786-0): > 100 µM (inactive)
- GI50 (A498): > 100 µM (inactive)
- GI50 (A549): > 100 µM (inactive)
- GI50 (ACHN): > 100 µM (inactive)
- GI50 (BT-549): > 100 µM (inactive)
- GI50 (CAKI-1): > 100 µM (inactive)
- GI50 (CCRF-CEM): > 100 µM (inactive)
- GI50 (COLO 205): > 100 µM (inactive)
- GI50 (DU-145): > 100 µM (inactive)
- GI50 (EKVX): > 100 µM (inactive)
- GI50 (HCT-116): > 100 µM (inactive)
- GI50 (HCT-15): > 100 µM
- GI50 (HL-60): > 100 µM (inactive)
- GI50 (HOP-62): > 100 µM (inactive)
- GI50 (HOP-92): > 100 µM (inactive)
- GI50 (HT-29): > 100 µM (inactive)
- GI50 (Hs-578T): > 100 µM (inactive)
- GI50 (IGROV-1): > 100 µM (inactive)
- GI50 (K562): 43.3 µM (inactive)
- GI50 (KM12): > 100 µM (inactive)
- GI50 (LOX IMVI): > 100 µM (inactive)
- GI50 (M14): > 100 µM (inactive)
- GI50 (MCF7): > 100 µM (inactive)
- GI50 (MDA-MB-231): > 100 µM (inactive)
- GI50 (MDA-MB-435): > 100 µM (inactive)
- GI50 (MDA-N): > 100 µM (inactive)
- GI50 (Malme-3M): > 100 µM (inactive)
- GI50 (NCI-H226): > 100 µM (inactive)
- GI50 (NCI-H23): > 100 µM (inactive)
- GI50 (NCI-H460): > 100 µM (inactive)
- GI50 (NCI-H522): > 100 µM (inactive)
- GI50 (NCI/ADR-RES): > 100 µM (inactive)
- GI50 (OVCAR-3): > 100 µM (inactive)
- GI50 (OVCAR-4): > 100 µM (inactive)
- GI50 (OVCAR-5): > 100 µM (inactive)
- GI50 (OVCAR-8): > 100 µM (inactive)
- GI50 (PC-3): > 100 µM (inactive)
- GI50 (RPMI-8226): > 100 µM (inactive)
- GI50 (RXF 393): > 100 µM (inactive)
- GI50 (SF-268): > 100 µM (inactive)
- GI50 (SF-295): > 100 µM (inactive)
- GI50 (SF-539): > 100 µM (inactive)
- GI50 (SK-MEL-28): > 100 µM (inactive)
- GI50 (SK-MEL-2): > 100 µM (inactive)
- GI50 (SK-MEL-5): > 100 µM (inactive)
- GI50 (SK-OV-3): > 100 µM (inactive)
- GI50 (SN12C): > 100 µM (inactive)
- GI50 (SNB-19): > 100 µM (inactive)
- GI50 (SNB-75): > 100 µM (inactive)
- GI50 (SR): > 100 µM (inactive)
- GI50 (SW-620): > 100 µM (inactive)
- GI50 (T47D): > 100 µM (inactive)
- GI50 (TK-10): > 100 µM (inactive)
- GI50 (U-251): > 100 µM (inactive)
- GI50 (UACC-257): > 100 µM (inactive)
- GI50 (UACC-62): > 100 µM (inactive)
- GI50 (UO-31): > 100 µM (inactive)

SMILES: N#Cc1c(-c2cccc(Cl)c2)cc(-c2ccc(Cl)cc2)nc1N
- GI50 (786-0): 17 µM (inactive)
- GI50 (A549): 17.5 µM (inactive)
- GI50 (ACHN): 17.7 µM (inactive)
- GI50 (BT-549): 18.6 µM (inactive)
- GI50 (CAKI-1): 26.1 µM (inactive)
- GI50 (CCRF-CEM): 18.3 µM (inactive)
- GI50 (COLO 205): 14.6 µM (inactive)
- GI50 (DU-145): 32.9 µM (inactive)
- GI50 (EKVX): 15.6 µM (inactive)
- GI50 (HCT-116): 16.5 µM (inactive)
- GI50 (HCT-15): 17.1 µM
- GI50 (HL-60): 38.1 µM (inactive)
- GI50 (HOP-62): 17.3 µM (inactive)
- GI50 (HOP-92): 10.9 µM (inactive)
- GI50 (HT-29): 24.3 µM (inactive)
- GI50 (Hs-578T): 21.1 µM (inactive)
- GI50 (IGROV-1): 10.1 µM (inactive)
- GI50 (K562): 34.4 µM (inactive)
- GI50 (KM12): 25.2 µM (inactive)
- GI50 (LOX IMVI): 17.1 µM (inactive)
- GI50 (M14): 19.1 µM (inactive)
- GI50 (MCF7): 16.3 µM (inactive)
- GI50 (MDA-MB-231): 16.1 µM (inactive)
- GI50 (MDA-MB-435): 19.1 µM (inactive)
- GI50 (MDA-N): 20 µM (inactive)
- GI50 (MOLT-4): 19 µM (inactive)
- GI50 (Malme-3M): 28.1 µM (inactive)
- GI50 (NCI-H226): 16.3 µM (inactive)
- GI50 (NCI-H23): 17.5 µM (inactive)
- GI50 (NCI-H460): 18.8 µM (inactive)
- GI50 (NCI-H522): 15.1 µM (inactive)
- GI50 (NCI/ADR-RES): 22 µM (inactive)
- GI50 (OVCAR-3): 23.7 µM (inactive)
- GI50 (OVCAR-4): 15.7 µM (inactive)
- GI50 (OVCAR-5): 21.7 µM (inactive)
- GI50 (OVCAR-8): 24.6 µM (inactive)
- GI50 (PC-3): 17.2 µM (inactive)
- GI50 (RPMI-8226): 18.1 µM (inactive)
- GI50 (RXF 393): 16.7 µM (inactive)
- GI50 (SF-268): 18.5 µM (inactive)
- GI50 (SF-295): 17.2 µM (inactive)
- GI50 (SF-539): 17.8 µM (inactive)
- GI50 (SK-MEL-2): 18.1 µM (inactive)
- GI50 (SK-MEL-5): 16.1 µM (inactive)
- GI50 (SK-OV-3): 18.3 µM (inactive)
- GI50 (SN12C): 17.3 µM (inactive)
- GI50 (SNB-19): 11.9 µM (inactive)
- GI50 (SR): 15.3 µM (inactive)
- GI50 (SW-620): 17.5 µM (inactive)
- GI50 (T47D): 27 µM (inactive)
- GI50 (TK-10): 19.7 µM (inactive)
- GI50 (U-251): 16.6 µM (inactive)
- GI50 (UACC-257): 15.3 µM (inactive)
- GI50 (UACC-62): 16.5 µM (inactive)
- GI50 (UO-31): 14.2 µM (inactive)

SMILES: Nc1ccc(C(=O)O)cc1.Nc1nc(N)c2nc[nH]c2n1
- GI50 (786-0): 26.7 µM (inactive)
- GI50 (A498): 13.6 µM (inactive)
- GI50 (A549): 13.3 µM (inactive)
- GI50 (ACHN): 17 µM (inactive)
- GI50 (BT-549): 78 µM (inactive)
- GI50 (CAKI-1): 13.6 µM (inactive)
- GI50 (CCRF-CEM): 19.6 µM (inactive)
- GI50 (COLO 205): 25.9 µM (inactive)
- GI50 (DU-145): 13.8 µM (inactive)
- GI50 (EKVX): 14.5 µM (inactive)
- GI50 (HCT-116): 15.2 µM (inactive)
- GI50 (HCT-15): 28.8 µM
- GI50 (HL-60): 31.4 µM (inactive)
- GI50 (HOP-62): 20.7 µM (inactive)
- GI50 (HOP-92): 79.3 µM (inactive)
- GI50 (HT-29): 20.4 µM (inactive)
- GI50 (Hs-578T): > 100 µM (inactive)
- GI50 (IGROV-1): 29.9 µM (inactive)
- GI50 (K562): 20 µM (inactive)
- GI50 (KM12): 22.3 µM (inactive)
- GI50 (LOX IMVI): 24.7 µM (inactive)
- GI50 (M14): 10.7 µM (inactive)
- GI50 (MCF7): 3.97 µM (inactive)
- GI50 (MDA-MB-231): 45.4 µM (inactive)
- GI50 (MDA-MB-435): 12.2 µM (inactive)
- GI50 (MDA-N): 13.9 µM (inactive)
- GI50 (MOLT-4): 41.4 µM (inactive)
- GI50 (Malme-3M): 69.2 µM (inactive)
- GI50 (NCI-H226): > 100 µM (inactive)
- GI50 (NCI-H23): 23.5 µM (inactive)
- GI50 (NCI-H460): 21.6 µM (inactive)
- GI50 (NCI-H522): 17.8 µM (inactive)
- GI50 (NCI/ADR-RES): 38.5 µM (inactive)
- GI50 (OVCAR-3): 19.1 µM (inactive)
- GI50 (OVCAR-4): 26.4 µM (inactive)
- GI50 (OVCAR-5): 17.1 µM (inactive)
- GI50 (OVCAR-8): 22.1 µM (inactive)
- GI50 (PC-3): 22.3 µM (inactive)
- GI50 (RPMI-8226): 12.1 µM (inactive)
- GI50 (RXF 393): 12.1 µM (inactive)
- GI50 (SF-268): 60.8 µM (inactive)
- GI50 (SF-295): 25 µM (inactive)
- GI50 (SF-539): > 100 µM (inactive)
- GI50 (SK-MEL-28): 33 µM (inactive)
- GI50 (SK-MEL-2): 22.9 µM (inactive)
- GI50 (SK-MEL-5): 21.5 µM (inactive)
- GI50 (SK-OV-3): 34.8 µM (inactive)
- GI50 (SN12C): 39 µM (inactive)
- GI50 (SNB-19): 40.7 µM (inactive)
- GI50 (SNB-75): 2.44 µM (inactive)
- GI50 (SR): 33.2 µM (inactive)
- GI50 (SW-620): 25.7 µM (inactive)
- GI50 (T47D): 3.27 µM (inactive)
- GI50 (TK-10): 19.8 µM (inactive)
- GI50 (U-251): 43.9 µM (inactive)
- GI50 (UACC-257): 17.5 µM (inactive)
- GI50 (UACC-62): 11.1 µM (inactive)
- GI50 (UO-31): 11.3 µM (inactive)
